# Reference: US20240245682A1, “ALPHA-V-BETA-8 INTEGRIN INHIBITORS AND USES THEREOF” (Pliant Therapeutics, Inc., priority 2022, published 2024)
# Entries after “also recorded” stand apart in the source; their conditions may differ.
# Key:
# EMT6 tumors = assay: EMT6 (breast) syngeneic tumor model (Example B6); assay type: in vivo, Balb/c mice
# Method: The therapeutic impact of Compound 39 of the examples in combination with anti PD-1 was studied for several […] mouse models, as shown in Table B-3. For each model, four dosing regimens were studied, using a group size of 10 mice per dosing regimen per model, and a total of 40 mice per model.
# Mice were shaved and tumor cells as indicated in Table B-3 were subcutaneously implanted in a 100 μl cell suspension that was subcutaneously injected into the front/rear flank of each mouse (as indicated in Table B-3).
# There was no dosing holiday. Dietary supplements were uniform for all animals in the same group.
# Animals were monitored weekly for changes in tumor volume. Tumors were measured at least once a week using calipers. Tumor volume was calculated using the equation: (longest diameter*shortest diameter^2)/2.
# The study was terminated four weeks after the first dose or when the tumor sizes reached greater than 3000 mm^3, whichever was first. Mice were euthanized and tumors were collected.
# Tumor tissues (50 to 80 mg) were homogenized using metal beads in pre-chilled RINO screw cap tubes, using lysis matrix (MP Lysing Matrix S [⅛″], 2 mL Tube MP Biomedical Cat #116925100) on MP Fast Prep 24 instrument. Tumor RNA extraction from the tumor homogenate used the Ambion Purelink, RNA kit (Cat #12183018A) according to the manufacturers' protocol. A total of 100 ng RNA was used for the Nanostring analysis of the immuno-oncology and fibrosis panel, and 300 ng RNA was used for the analysis of the integrin panel. RNA was hybridized to gene expression Plexset according to the manufacturers' protocol. Hybridized reactions were read on nCounter MAX (Nanostring), and data were analyzed using nCounter software.
# Table B-5 lists the catalog numbers of the antibodies used in the immunohistochemical (IHC) studies. Quantification of staining was done using the HALO software package (Indica Labs, Albaquerque, NM).
# [1] = system: primary human cancer associated fibroblasts (CAFs); assay: CAF adhesion to TGFβ latency-associated peptide (LAP), high-content imaging; assay type: cell-based
# Method: (§1) Integrin αVβ1 is expressed in multiple solid tumors and drives the adhesion of cancer-associated fibroblasts (CAFs) to latent TGFβ. In human tumor tissues and in CAFs, αVβ1 protein expression was evaluated via immunohistochemistry (IHC) and custom […] assay, respectively. CAF adhesion to the TGFβ latency-associated peptide (LAP) was quantified in the presence or absence of Compound 39 in vitro by high-content microscopy imaging. The activity of Compound 39 in combination with anti-mPD-1 on fibrotic markers was evaluated in the EMT6 tumor model in vivo by gene expression analysis using the Nanostring® nCounter analysis system. Compound 39-treated human breast tumor tissue was analyzed for fibrotic marker α-smooth muscle actin (αSMA) using immunofluorescence.
# (§2) αvβ1 protein expression was evaluated in human tumor tissues via immunohistochemistry. αvβ1 protein levels in primary human CAFs isolated from pancreatic carcinoma, lung adenocarcinoma, and lung squamous cell carcinoma were quantified via custom electrochemiluminescence assay. CAF adhesion to latency associated peptide (LAP), the integrin-binding region of latent TGF-β, was quantified in the presence or absence of Compound 39 of the examples and a small molecule selective inhibitor of αvβ1 by high-content imaging in vitro. […]
# [2] = system: human breast tumor tissue; assay: Ex vivo cultured human breast tumor tissue, immunofluorescence of fibrotic markers; assay type: cell-based
# Method: as §1, §2
# [3] = system: human breast and melanoma tumor tissues; assay: Ex vivo cultured human breast and melanoma tumor tissues (Example B9); assay type: cell-based
# Method: Inhibition of αvβ1 and TGF-β mediated by Compound 39 of the examples was monitored via cell adhesion assays and transcriptomic analyses. αvβ1 protein expression was evaluated on human tumor tissues via immunohistochemistry using an indigenously developed anti-αvβ1 antibody. Efficacy of Compound 39 monotherapy and in combination with ICB was evaluated in syngeneic mouse models bearing EMT6 and Pan02 tumors. Animal survival, tumor growth, transcriptomic analyses, tissue fibrosis, and TILs were monitored along with circulating lymphocytes and cytokines. Tissue and circulating biomarkers of response to Compound 39 were identified. Human breast and melanoma tumor tissues were cultured ex vivo and Compound 39 activity was assessed by measuring CD8+ cytotoxic T cells and tumor apoptosis.
# TKCC-10 PDX = assay: Orthotopic TKCC-10 (PDX-10) PDX model of PDAC (Example B12); assay type: in vivo, NSG mice
# Method: Table B-9 depicts the study design to determine the efficacy of selective αvβ1/αvβ8 SMI in the orthotopic ECM-high PDX models of PDAC. Table B-10 depicts the study design for the TKCC-10 PDX model.
# TKCC-10 PDX bearing mice were treated with dose regimen according to the schematic in Table B-9 and FIG. 24A depicts a schematic diagram of the treatment regimen in the TKCC-10 mice. FIG. 24B depicts a graph showing final tumor weight for TKCC-10 PDX bearing mice after treatment with G/A, Compound 39, and Compound 39+G/A. FIG. 24C depicts a graph showing final tumor weight for TKCC-10 PDX bearing mice after treatment with G/A, ADWA-11, and ADWA-11+G/A.
# KPC tumors = assay: Orthotopic KPC syngeneic model of PDAC (Example B11)
# Method: The preclinical efficacy of Compound 39 of the examples was determined in genetically-defined (LSL-KrasG12D/+; LSL-Trp53R172H/+; Pdx1-Cre (KPC), and Pan02) and genomically diverse patient-derived PDA xenograft models. Clinically relevant combinations with standard of care (SoC) chemotherapy and anti-programmed death receptor-1 antibody (anti mPD-1) were tested by monitoring tumor growth, metastasis, and animal survival. Mechanistic assessment of alterations in the tumor microenvironment (TME) was performed using transcriptomic, immunohistochemical, and immunofluorescence approaches.
# Animals were prepared for injection using standard approved anesthesia. Mice were shaved and tumor cells 500 KPC cells were orthotopically implanted (in pancreas) in a 100 μL cell suspension.
# Tumor cells were allowed to form pancreatic tumors for one week. Mice were randomized into groups and treated with indicated compounds and dose regimens according to the schema outlined in Table B-7.
# Compound 39 was administered in a solution containing 10% v/v ethanol, 70% w/v propylene glycol, and 20% v/v PBS and administered to mice via oral gavage at a dose of 300 mg/kg body weight over the duration of 22 days (for timepoint study) or 80 days (survival study). The mAbs, anti-mPD-1 and anti-αVβ8, were each administered in PBS by intraperitoneal injection at a dose of 10 mg/kg body weight twice a week (for 2 weeks).
# Since these were orthotopic tumors, tumor volume measurement was not possible. Tumor weights were determined at the end of the study. Additionally, body weight of mice and any change in behavior/appearance were monitored twice a week for any signs of discomfort/toxicity.
# The study was terminated either at 22 days after the first dose, or at 80 days for the survival study. Mice were euthanized and tumors were collected. Half of the tumor was snap frozen in liquid nitrogen and the other half was fixed in formalin.
# Formalin (10%) fixed tissues were sent to Histowiz (a clinical research organization providing complete histology services) for paraffin embedding and sectioning. Using standard protocols optimized by Histowiz, tissue sections were stained for hematoxylin and eosin and immunostained for CD8, CD4, Cleaved caspase-3, and FoxP3, which are specific membrane markers for cytotoxic, helper, and regulator T cells, respectively. Additionally, tissues were stained with Pico Sirius Red (PSR) and second harmonic imaging (SHG) analysis was performed to evaluate stromal collagen density.
# [4] = Compound 39+α-PD1 vs vehicle+αPD1, FIG. 48, model not stated
smiles,measurement,setting,value
"Cc1ncnc(Cl)c1C1(C(=O)N[C@@H](CCOCCCCc2ccc3c(n2)NCCC3)C(=O)O)CC1 [Compound 39, N-(1-(4-chloro-6-methylpyrimidin-5-yl)cyclopropane-1-carbonyl)-O-(4-(5,6,7,8-tetrahydro-1,8-naphthyridin-2-yl)butyl)-L-homoserine]",IFNγ gene signature,EMT6 tumors; [4],increases
same,TGFβ gene signatures,EMT6 tumors; [4],Reduces
same,fibrotic markers and tissue fibrosis in the tumor microenvironment,"EMT6 tumors; Nanostring gene expression, Pico Sirius red, FIG. 107-112",reduces fibrotic markers; also recorded: significantly reduced fibrosis
same,TGFβ activity,"EMT6 tumors; compared to vehicle, FIG. 33, model not given",reduced TGFβ activity
same,expression of IFNγ-regulated gene Granzyme B,"EMT6 tumors; compared to vehicle, FIG. 34A",increased expression
same,expression of IFNγ-regulated gene IFNγ,"EMT6 tumors; compared to vehicle, FIG. 34B",increased expression
same,expression of IFNγ-regulated gene CXCL9,"EMT6 tumors; compared to vehicle, FIG. 34C",increased expression
same,expression of IFNγ-regulated gene PDL1,"EMT6 tumors; compared to vehicle, FIG. 34D",increased expression
same,adhesion of CAFs to LAP,"[1]; LUAD, LUSC and pancreatic stellate CAFs, FIG. 103-105","inhibits the adhesion of LUAD, LUSC, and PSC CAFs to TGFβ latency-associated peptide in a dose-dependent manner; also recorded: blocked the binding of CAFs to LAP; also recorded: significantly block in vitro binding of primary human CAFs to LAP"
same,binding of latency associated peptide (LAP) to αvβ1,[1]; cell adhesion assays,prevented
same,reduction of fibroblast activation marker αSMA,"[2]; compared to vehicle-treated tissues, FIG. 106",2.9 fold
same,"expression of fibrotic markers (αSMA, FAP)",[2]; in words,decreases; also recorded: reduced expression of fibrotic markers αSMA and FAP
same,cytotoxic CD8^+ T cells,[3],significant increase in cytotoxic CD8^+T cells
same,fibrotic markers,[3],reduction in fibrotic markers
same,mean tumor weight,"TKCC-10 PDX; 30 days, Compound 39 300 mg/kg BID oral, G 100 mg/kg / A 30 mg/kg i.p. once per week, FIG. 24B",0.798 ± 0.17 g
same,mean number of lung metastases,TKCC-10 PDX; FIG. 25D,4.1±3.2
same,tumor weight / tumor growth,"TKCC-10 PDX; in words, FIG. 24C, 73",significantly blocked tumor growth and improved the response to the standard of care (SOC) chemotherapy G/A
same,mean tumor weight,"KPC tumors; 22 day timepoint, Compound 39 300 mg/kg oral gavage, mAbs 10 mg/kg i.p., FIG. 20B",0.44 ± 0.9 g
same,"collagen content (PSR, SHG imaging)","KPC tumors; FIG. 22A, 22B",significantly reduced the collagen content
same,reduction in tumor weight compared with vehicle,KPC tumors; FIG. 79,45%
same,"avg % CD8^+ T cells/ROI, invasive (leading) edge","KPC tumors; IHC, FIG. 21A",3.06±1.05%
same,"avg % CD8^+ T cells/ROI, internal tumor","KPC tumors; IHC, FIG. 21B",2.02±0.77%
same,disease progression / overall survival,"KPC tumors; in words, FIG. 23, 46, 47",delayed disease progression in vivo; also recorded: improved overall survival compared to α-PD-1
same,CD4^+ T cells,"KPC tumors; in words, compared to vehicle, FIG. 21E, 21F",did not show any significant difference in CD4^+ T cells
same,median survival (median OS),"KPC tumors; survival study up to 80 days, FIG. 23B, 23C",45 days
